{
  "source": "patent US7323447B2",
  "about": "“Hepatitis C virus inhibitors” (Bristol-Myers Squibb Company, priority 2005, dated 2008)",
  "key": {"[1]": {"test_system": "HCV replicon (Renilla luciferase) in HUH-7 cells", "test": "HCV replicon luciferase reporter assay", "format": "cell-based, Hepatitis C virus (strain 1b)", "conditions": "Huh-7, 96 h, 4 days", "text": "As a secondary assay, EC50 determinations from the replicon FRET assay were confirmed in a replicon luciferase reporter assay. Utilization of a replicon luciferase reporter assay was first described by Krieger et al (Krieger N, Lohmann V, and Bartenschlager R, J. Virol. 75(10):4614-4624 (2001)). The replicon construct described for our FRET assay was modified by inserting cDNA encoding a humanized form of the Renilla luciferase gene and a linker sequence fused directly to the 3′-end of the luciferase gene. This insert was introduced into the replicon construct using an Asc1 restriction site located in core, directly upstream of the neomycin marker gene. The adaptive mutation at position 1179 (serine to isoleucine) was also introduced (Blight K J, Kolykhalov, A A, Rice, C M, Science 290(5498): 1972-1974). A stable cell line constitutively expressing this HCV replicon construct was generated as described above. […] Following 4 days in a 37° C./5% CO2 incubator, cells were analyzed for Renilla Luciferase activity using the Promega Dual-Glo Luciferase Assay System. […] Plates were read on a Packard TopCount NXT using a luminescence program.\nThe percentage inhibition was calculated using the formula below: […]\nThe values were graphed and analyzed using XLfit to obtain the EC50 value."}, "[2]": {"biological_target": "T1, HCV NS3/4A protease complex (BMS strain) (UniProt P27958)", "T1 construct": "other: HCV NS3/4A enzyme assay; said of H77 and J4L6S; fused on or other part: Three-lysine solubilising tail at the NS4A C-terminus and a His tag from pET21b (Ni-NTA purification), for the H77 and J4L6S constructs", "T1 sequence (P27958 1027-1657, one chain of several)": "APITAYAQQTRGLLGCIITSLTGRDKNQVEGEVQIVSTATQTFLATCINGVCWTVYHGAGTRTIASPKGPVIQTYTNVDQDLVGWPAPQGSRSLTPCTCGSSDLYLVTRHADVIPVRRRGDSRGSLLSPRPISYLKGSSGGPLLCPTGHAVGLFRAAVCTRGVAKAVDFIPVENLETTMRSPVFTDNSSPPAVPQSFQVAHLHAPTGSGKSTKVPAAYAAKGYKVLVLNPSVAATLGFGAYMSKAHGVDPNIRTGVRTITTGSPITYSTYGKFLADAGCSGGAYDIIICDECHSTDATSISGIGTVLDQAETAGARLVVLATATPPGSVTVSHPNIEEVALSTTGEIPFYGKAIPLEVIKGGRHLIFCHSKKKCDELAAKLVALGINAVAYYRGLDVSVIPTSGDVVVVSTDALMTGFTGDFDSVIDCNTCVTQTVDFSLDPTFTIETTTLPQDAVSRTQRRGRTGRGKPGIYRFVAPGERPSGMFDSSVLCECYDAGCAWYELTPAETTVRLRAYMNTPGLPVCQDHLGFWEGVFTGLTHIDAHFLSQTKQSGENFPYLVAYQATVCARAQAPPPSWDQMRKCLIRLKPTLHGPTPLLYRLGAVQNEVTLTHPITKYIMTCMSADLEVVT", "test": "FRET peptide assay to monitor HCV NS3/4A proteolytic activity, BMS strain", "format": "biochemical, Hepatitis C virus (genotype 1a)", "conditions": "read-out: IC50 Range; HCV NS3/4A enzyme assay; Table 1", "procedure,_shortened": "(§1)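 Recombinant NS3/4A (BMS strain, genotype 1a, >90% pure) cleaving FRET depsipeptide RET S1 (EDANS/DABCYL) at 2 μM; enzyme 2-3 nM (300 pM with 50 μg/ml BSA for sensitive runs). Buffer 50 mM HEPES pH 7.5, 0.15 M NaCl, 0.1% Triton, 15% glycerol, 10 mM βME; fluorescence followed in real time.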"}, "[3]": {"biological_target": "T2, HCV NS3/4A protease complex (BMS strain) (UniProt P27958, species not given/STRAIN_BMS)", "T2 construct": "other: BMS strain; said of H77 and J4L6S; These are given only for the H77 and J4L6S constructs", "T2 sequence (P27958 1027-1657, stated change not applied, one chain of several)": "as the sequence (P27958 1027-1657, one chain of several) above", "test": "FRET peptide assay to monitor HCV NS3/4A proteolytic activity, BMS strain", "format": "biochemical, Hepatitis C virus (genotype 1a)", "conditions": "read-out: IC50 against the NS3/4A BMS strain in the enzyme assay; BMS strain", "procedure,_shortened": "as §1"}},
  "data": [
    {"smiles": "C=C[C@@H]1C[C@]1(NC(=O)[C@@H]1C[C@@H](OC(=O)N2Cc3cccc(F)c3C2)CN1C(=O)[C@@H](OC(=O)NC(C)(C)C)C(C)(C)C)C(=O)NS(=O)(=O)C1CC1", "note": "[Example 56Compound 56]", "values": [
      {"measurement": "EC50", "setting": "[1]", "result": 247, "unit": "nM"},
      {"measurement": "IC50", "setting": "[2]", "result": "< 100", "unit": "nM"},
      {"measurement": "IC50", "setting": "[3]", "result": 99, "unit": "nM"}
    ]}
  ]
}
